Results taken from ChEMBL document CHEMBL4507299, “Data for DCP probe PF-04554878” (2021).

What was measured:
[1] = tested on: ALK tyrosine kinase receptor (Homo sapiens), Q9UM73 [L1196M]
[2] = target: Tyrosine-protein kinase JAK1 (Homo sapiens) (UniProt P23458)
[3] = target: Glycogen synthase kinase-3 beta (Homo sapiens, UniProt P49841)
[4] = target: Phosphatidylinositol 4-phosphate 3-kinase C2 domain-containing subunit beta (Homo sapiens) (UniProt O00750)
[5] = target: Serine/threonine-protein kinase MRCK beta (Homo sapiens) (UniProt Q9Y5S2)
[6] = target: Mitogen-activated protein kinase kinase kinase 14 (Homo sapiens) (UniProt Q99558)
[7] = target: T1, Tyrosine-protein kinase JAK3 (Homo sapiens) (UniProt P52333)
T1 sequence (whole entry): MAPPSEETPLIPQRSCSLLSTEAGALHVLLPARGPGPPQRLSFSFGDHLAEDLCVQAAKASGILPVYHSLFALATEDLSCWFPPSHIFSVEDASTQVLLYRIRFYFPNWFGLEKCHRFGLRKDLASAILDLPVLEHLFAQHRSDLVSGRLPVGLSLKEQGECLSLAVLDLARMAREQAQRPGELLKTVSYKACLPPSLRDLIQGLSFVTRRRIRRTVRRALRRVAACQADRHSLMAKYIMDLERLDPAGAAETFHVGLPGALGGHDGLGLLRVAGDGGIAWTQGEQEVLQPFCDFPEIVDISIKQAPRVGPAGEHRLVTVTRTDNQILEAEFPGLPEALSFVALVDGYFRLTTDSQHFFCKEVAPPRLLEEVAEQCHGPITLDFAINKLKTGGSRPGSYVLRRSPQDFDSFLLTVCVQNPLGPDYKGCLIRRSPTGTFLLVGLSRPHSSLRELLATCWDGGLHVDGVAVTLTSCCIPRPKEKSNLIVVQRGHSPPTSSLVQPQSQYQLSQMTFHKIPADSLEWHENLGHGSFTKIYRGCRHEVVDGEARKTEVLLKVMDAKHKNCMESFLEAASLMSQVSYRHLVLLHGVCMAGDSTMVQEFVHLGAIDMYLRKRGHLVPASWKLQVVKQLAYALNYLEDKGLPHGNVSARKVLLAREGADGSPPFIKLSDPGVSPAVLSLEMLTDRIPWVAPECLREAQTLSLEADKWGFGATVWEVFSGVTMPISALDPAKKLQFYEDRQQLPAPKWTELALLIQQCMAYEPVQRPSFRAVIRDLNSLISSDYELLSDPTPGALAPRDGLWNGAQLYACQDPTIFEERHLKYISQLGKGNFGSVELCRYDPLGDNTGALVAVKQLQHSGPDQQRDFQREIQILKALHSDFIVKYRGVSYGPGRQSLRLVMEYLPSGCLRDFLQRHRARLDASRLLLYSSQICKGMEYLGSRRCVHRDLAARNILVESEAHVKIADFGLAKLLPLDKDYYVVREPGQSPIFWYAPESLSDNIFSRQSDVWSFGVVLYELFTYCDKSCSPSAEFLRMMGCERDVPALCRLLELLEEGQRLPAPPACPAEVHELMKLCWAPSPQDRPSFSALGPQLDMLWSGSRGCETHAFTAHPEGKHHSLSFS

[8] = target: Dual specificity protein kinase TTK (Homo sapiens) (UniProt P33981)
[9] = target: Cyclin-dependent kinase-like 1 (Homo sapiens) (UniProt Q00532)
[10] = tested on: eIF-2-alpha kinase GCN2 (Homo sapiens), Q9P2K8 [S808G]
[11] = tested on: Tyrosine-protein kinase ABL1 (Homo sapiens), P00519 [F317L]
[12] = target: Myosin light chain kinase (Homo sapiens) (UniProt Q32MK0)
[13] = target: Fibroblast growth factor receptor 4 (Homo sapiens) (UniProt P22455)
[14] = target: Casein kinase II subunit alpha' (Homo sapiens) (UniProt P19784)
[15] = target: Cyclin-G-associated kinase (Homo sapiens) (UniProt O14976)
[16] = target: Serine/threonine-protein kinase WNK3 (Homo sapiens) (UniProt Q9BYP7)
[17] = tested on: Epidermal growth factor receptor (Homo sapiens), P00533 [UNDEFINED MUTATION]
[18] = target: Mitogen-activated protein kinase kinase kinase kinase 1 (Homo sapiens) (UniProt Q92918)
[19] = target: Dual specificity protein kinase CLK4 (Homo sapiens) (UniProt Q9HAZ1)
[20] = target: Tyrosine-protein kinase JAK1 (Homo sapiens) (UniProt P23458); remark: listed apart in the source
[21] = tested on: Phosphatidylinositol 4,5-bisphosphate 3-kinase catalytic subunit alpha isoform (Homo sapiens), P42336 [M1043I]
[22] = target: Mitogen-activated protein kinase 4 (Homo sapiens) (UniProt P31152)
[23] = target: Bone morphogenetic protein receptor type-1B (Homo sapiens) (UniProt O00238)
[24] = target: G protein-coupled receptor kinase 3 (Homo sapiens) (UniProt P35626)
[25] = target: Mitogen-activated protein kinase kinase kinase 20 (Homo sapiens) (UniProt Q9NYL2)
[26] = target: Receptor-type tyrosine-protein kinase FLT3 (Homo sapiens) (UniProt P36888)
[27] = tested on: Fibroblast growth factor receptor 3 (Homo sapiens), P22607 [G697C]
[28] = tested on: Hepatocyte growth factor receptor (Homo sapiens), P08581 [Y1235D]
[29] = target: Tyrosine-protein kinase ABL2 (Homo sapiens) (UniProt P42684)
[30] = target: NUAK family SNF1-like kinase 2 (Homo sapiens) (UniProt Q9H093)
[31] = Compound concentration 100.0 nM
[32] = Compound concentration 1000.0 nM

Chain of Tyrosine-protein kinase JAK1 (Homo sapiens) (P23458 whole entry, canonical isoform): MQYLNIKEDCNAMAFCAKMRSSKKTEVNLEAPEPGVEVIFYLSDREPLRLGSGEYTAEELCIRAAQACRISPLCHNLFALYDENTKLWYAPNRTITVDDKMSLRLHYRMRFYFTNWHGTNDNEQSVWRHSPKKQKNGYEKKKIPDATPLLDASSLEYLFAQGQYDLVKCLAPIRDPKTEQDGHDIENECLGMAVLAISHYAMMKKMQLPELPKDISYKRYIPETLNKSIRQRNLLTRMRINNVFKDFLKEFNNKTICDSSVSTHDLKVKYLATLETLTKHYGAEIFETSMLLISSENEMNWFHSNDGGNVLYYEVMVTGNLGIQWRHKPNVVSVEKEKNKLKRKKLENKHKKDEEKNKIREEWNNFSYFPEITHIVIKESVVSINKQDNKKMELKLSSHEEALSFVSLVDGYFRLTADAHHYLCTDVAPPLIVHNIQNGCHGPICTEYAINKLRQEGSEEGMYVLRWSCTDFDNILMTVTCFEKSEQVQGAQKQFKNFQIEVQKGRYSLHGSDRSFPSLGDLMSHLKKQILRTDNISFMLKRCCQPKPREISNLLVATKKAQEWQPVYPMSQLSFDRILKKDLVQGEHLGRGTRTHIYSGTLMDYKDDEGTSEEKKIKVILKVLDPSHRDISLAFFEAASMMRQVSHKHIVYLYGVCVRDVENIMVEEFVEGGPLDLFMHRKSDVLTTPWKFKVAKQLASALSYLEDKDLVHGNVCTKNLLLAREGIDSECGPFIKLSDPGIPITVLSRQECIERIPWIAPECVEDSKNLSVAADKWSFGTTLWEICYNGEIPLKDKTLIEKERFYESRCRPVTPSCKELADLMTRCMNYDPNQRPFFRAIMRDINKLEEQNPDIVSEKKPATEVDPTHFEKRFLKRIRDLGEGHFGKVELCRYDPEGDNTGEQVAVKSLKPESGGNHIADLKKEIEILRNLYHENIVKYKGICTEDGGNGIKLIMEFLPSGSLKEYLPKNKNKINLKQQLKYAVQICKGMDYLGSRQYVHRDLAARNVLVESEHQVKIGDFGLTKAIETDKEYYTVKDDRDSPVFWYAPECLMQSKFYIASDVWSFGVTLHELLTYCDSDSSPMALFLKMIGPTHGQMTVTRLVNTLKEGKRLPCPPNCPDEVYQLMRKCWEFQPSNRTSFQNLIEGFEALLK
Chain of Phosphatidylinositol 4-phosphate 3-kinase C2 domain-containing subunit beta (Homo sapiens) (O00750 whole entry, the tested form may be a part): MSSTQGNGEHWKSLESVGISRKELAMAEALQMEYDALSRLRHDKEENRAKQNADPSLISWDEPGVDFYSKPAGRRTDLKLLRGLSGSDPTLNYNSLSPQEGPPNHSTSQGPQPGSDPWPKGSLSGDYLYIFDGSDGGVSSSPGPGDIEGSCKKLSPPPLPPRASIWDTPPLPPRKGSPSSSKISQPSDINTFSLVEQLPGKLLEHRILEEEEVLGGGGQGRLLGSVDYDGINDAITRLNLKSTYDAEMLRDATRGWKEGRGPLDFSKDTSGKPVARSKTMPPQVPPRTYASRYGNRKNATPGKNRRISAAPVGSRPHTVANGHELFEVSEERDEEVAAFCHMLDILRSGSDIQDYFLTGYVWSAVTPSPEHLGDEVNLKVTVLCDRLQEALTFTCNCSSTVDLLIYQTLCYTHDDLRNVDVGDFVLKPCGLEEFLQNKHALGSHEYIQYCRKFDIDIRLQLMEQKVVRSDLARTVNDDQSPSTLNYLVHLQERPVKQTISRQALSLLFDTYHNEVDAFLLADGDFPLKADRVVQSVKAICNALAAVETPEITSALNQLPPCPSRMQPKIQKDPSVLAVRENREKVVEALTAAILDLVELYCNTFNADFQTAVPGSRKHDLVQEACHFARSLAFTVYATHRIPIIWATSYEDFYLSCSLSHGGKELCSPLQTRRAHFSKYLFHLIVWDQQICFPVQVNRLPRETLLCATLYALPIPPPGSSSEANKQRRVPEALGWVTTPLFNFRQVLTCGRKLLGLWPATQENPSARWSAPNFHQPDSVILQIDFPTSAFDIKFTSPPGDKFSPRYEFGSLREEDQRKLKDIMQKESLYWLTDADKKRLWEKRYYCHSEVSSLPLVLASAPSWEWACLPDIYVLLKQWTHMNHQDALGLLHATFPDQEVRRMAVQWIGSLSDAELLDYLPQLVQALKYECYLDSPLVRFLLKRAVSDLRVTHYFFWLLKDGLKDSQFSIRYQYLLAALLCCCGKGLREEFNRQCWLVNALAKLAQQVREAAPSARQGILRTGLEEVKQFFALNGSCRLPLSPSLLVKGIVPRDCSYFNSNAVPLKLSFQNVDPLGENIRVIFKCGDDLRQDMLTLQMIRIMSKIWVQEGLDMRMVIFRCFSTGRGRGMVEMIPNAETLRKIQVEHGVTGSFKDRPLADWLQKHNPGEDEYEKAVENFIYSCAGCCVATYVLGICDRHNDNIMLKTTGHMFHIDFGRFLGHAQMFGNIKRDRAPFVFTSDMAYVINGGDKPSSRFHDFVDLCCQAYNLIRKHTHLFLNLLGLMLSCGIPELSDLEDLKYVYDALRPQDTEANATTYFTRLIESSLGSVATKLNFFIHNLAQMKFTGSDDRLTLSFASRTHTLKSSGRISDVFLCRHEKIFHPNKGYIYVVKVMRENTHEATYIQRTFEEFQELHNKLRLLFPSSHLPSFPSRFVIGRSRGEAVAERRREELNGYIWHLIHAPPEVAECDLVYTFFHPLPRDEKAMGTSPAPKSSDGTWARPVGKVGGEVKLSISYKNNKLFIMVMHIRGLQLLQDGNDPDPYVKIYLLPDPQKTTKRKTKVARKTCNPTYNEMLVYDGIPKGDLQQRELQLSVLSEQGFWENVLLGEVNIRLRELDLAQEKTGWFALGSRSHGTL
Chain of Receptor-type tyrosine-protein kinase FLT3 (Homo sapiens) (P36888 whole entry): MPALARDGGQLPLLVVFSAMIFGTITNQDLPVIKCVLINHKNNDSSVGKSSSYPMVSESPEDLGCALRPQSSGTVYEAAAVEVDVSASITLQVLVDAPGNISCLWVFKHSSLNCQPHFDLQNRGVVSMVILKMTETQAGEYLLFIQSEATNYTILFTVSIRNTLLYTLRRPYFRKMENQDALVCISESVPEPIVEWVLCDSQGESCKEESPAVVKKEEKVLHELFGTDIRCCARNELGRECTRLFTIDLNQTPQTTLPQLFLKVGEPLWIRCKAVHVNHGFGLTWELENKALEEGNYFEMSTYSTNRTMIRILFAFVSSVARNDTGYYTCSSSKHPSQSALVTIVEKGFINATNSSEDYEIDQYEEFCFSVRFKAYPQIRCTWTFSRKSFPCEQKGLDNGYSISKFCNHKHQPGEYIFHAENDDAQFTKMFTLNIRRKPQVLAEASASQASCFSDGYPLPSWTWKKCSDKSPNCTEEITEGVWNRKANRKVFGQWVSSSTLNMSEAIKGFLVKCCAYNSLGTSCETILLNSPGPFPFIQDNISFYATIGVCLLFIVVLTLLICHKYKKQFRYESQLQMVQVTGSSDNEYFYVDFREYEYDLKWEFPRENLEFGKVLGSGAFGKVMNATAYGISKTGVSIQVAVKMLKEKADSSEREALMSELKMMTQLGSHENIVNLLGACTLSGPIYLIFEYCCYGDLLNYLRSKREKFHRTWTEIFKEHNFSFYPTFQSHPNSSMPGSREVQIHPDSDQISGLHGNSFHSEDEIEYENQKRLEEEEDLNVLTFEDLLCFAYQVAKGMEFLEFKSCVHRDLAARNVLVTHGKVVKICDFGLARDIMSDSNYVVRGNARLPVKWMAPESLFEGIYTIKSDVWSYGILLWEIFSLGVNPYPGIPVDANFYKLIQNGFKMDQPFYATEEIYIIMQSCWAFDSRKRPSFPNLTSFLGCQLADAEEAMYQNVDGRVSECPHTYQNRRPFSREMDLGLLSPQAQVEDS
Chain of G protein-coupled receptor kinase 3 (Homo sapiens) (P35626 whole entry): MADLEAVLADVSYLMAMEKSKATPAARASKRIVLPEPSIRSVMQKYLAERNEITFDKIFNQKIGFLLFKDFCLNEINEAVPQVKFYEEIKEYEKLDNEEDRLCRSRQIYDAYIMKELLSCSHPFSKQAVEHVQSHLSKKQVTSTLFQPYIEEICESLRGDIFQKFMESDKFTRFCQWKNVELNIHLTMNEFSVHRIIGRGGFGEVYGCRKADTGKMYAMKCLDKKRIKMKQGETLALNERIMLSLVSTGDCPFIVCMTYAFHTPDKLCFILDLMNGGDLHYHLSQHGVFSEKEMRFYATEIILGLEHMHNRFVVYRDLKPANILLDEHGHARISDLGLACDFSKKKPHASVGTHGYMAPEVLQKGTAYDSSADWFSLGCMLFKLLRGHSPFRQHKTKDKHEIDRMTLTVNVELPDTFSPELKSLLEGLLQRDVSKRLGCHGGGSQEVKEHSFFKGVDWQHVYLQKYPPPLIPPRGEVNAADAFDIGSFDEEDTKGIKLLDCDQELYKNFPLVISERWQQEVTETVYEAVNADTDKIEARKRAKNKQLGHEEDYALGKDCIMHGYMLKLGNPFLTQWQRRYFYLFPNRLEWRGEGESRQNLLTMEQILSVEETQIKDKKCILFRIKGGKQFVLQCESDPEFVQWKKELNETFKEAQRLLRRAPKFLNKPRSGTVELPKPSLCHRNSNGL
Chain of Bone morphogenetic protein receptor type-1B (Homo sapiens) (O00238 whole entry): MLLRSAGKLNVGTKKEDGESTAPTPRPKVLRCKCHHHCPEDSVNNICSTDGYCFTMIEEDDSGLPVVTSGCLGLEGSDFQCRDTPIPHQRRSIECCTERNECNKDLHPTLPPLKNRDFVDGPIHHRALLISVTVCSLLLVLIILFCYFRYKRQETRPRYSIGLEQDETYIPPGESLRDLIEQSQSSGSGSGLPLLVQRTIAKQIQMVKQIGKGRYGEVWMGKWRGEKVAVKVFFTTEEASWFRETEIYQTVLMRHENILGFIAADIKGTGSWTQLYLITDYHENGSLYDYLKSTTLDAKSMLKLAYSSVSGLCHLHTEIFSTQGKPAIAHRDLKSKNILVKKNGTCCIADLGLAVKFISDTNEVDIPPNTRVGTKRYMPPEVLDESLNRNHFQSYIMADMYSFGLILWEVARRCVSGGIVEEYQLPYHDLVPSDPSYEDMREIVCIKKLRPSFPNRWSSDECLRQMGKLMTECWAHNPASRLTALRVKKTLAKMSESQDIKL

## CNC(=O)c1ccc(Nc2ncc(C(F)(F)F)c(NCc3nccnc3N(C)S(C)(=O)=O)n2)cc1 [DEFACTINIB]
[1]; [31]
  residual activity: 85%
[2]; [31]
  residual activity: 29%
[3]; [31]
  residual activity: 87%
[4]; [31]
  residual activity: 87%
[5]; [31]
  residual activity: 90%
[6]; [31]
  residual activity: 92%
[7]; [31]
  residual activity: 8.2%
[8]; [31]
  residual activity: 8.3%
[9]; [31]
  residual activity: 82%
[10]; [31]
  residual activity: 27%
[11]; [31]
  residual activity: 93%
[12]; [31]
  residual activity: 100%
[13]; [31]
  residual activity: 95%
[14]; [31]
  residual activity: 28%
[15]; [31]
  residual activity: 69%
[16]; [31]
  residual activity: 100%
[17]; [31]
  residual activity: 93%
[18]; [31]
  residual activity: 18%
[19]; [31]
  residual activity: 25%
[20]; [31]
  residual activity: 28%
[21]; [31]
  residual activity: 100%
[22]; [31]
  residual activity: 87%
[23]; [31]
  residual activity: 65%
[24]; [31]
  residual activity: 80%
[25]; [31]
  residual activity: 100%
[26]; [31]
  residual activity: 46%
[27]; [31]
  residual activity: 100%
[28]; [31]
  residual activity: 71%
[29]; [31]
  residual activity: 93%
[30]; [31]
  residual activity: 53%

## CN(c1ccnc(CNc2nc(Nc3ccc4c(c3)CC(=O)N4)ncc2C(F)(F)F)n1)S(C)(=O)=O [PF-00911705]
[1]; [32]
  residual activity: 65%
[2]; [32]
  residual activity: 20%
[3]; [32]
  residual activity: 57%
[4]; [32]
  residual activity: 79%
[5]; [32]
  residual activity: 100%
[6]; [32]
  residual activity: 65%
[7]; [32]
  residual activity: 1.9%
[8]; [32]
  residual activity: 13%
[9]; [32]
  residual activity: 61%
[10]; [32]
  residual activity: 6.7%
[11]; [32]
  residual activity: 84%
[12]; [32]
  residual activity: 100%
[13]; [32]
  residual activity: 83%
[14]; [32]
  residual activity: 6.7%
[15]; [32]
  residual activity: 66%
[16]; [32]
  residual activity: 79%
[17]; [32]
  residual activity: 83%
[18]; [32]
  residual activity: 33%
[19]; [32]
  residual activity: 1.4%
[20]; [32]
  residual activity: 94%
[21]; [32]
  residual activity: 95%
[22]; [32]
  residual activity: 57%
[23]; [32]
  residual activity: 3.6%
[24]; [32]
  residual activity: 91%
[25]; [32]
  residual activity: 100%
[26]; [32]
  residual activity: 23%
[27]; [32]
  residual activity: 89%
[28]; [32]
  residual activity: 10%
[29]; [32]
  residual activity: 75%
[30]; [32]
  residual activity: 7.6%
